Activity calls are given as the source filed them. The calls are words filed in the database; no cut-off is given here.

In data set [1] the test system is Mus musculus. Put plainly: In vivo inhibition of myeloperoxidase activity in bradykinin-induced Swiss mouse peritonitis model at 1 to 100 mg/kg, ip administered prior to bradykinin challenge for 4hrs. The data set is classed as functional, organism-based.
The test system of data set [2] is Mus musculus. Put plainly: Antiinflammatory activity in bradykinin-induced peritonitis Swiss mouse model assessed as decrease in total number of cells in pertonial cavity at 3 mg/kg, ip administered for 30 mins prior to bradykinin challenge. The class given is functional.
Data set [3] relates to Mus musculus. Put plainly: Antiinflammatory activity against carrageenan-induced paw edema in Swiss mouse at 3 mg/kg, ip measured at 15 to 90 mins administered 30 mins prior to carrageenan-challenge by plethysmometric analysis. The class given is functional. For orientation: In the carrageenan paw model, swelling and tenderness develop within hours.
The test system of data set [4] is Mus musculus. Put plainly: Antiinflammatory activity against bradykinin-induced paw edema in Swiss mouse at 100 mg/kg, ip measured at 15 to 90 mins administered 30 mins prior to bradikynin-challenge by plethysmometric analysis. The data set is classed as functional.
For data set [5], the system named is Mus musculus. Put plainly: Antiinflammatory activity against substance-P-induced paw edema in Swiss mouse at 3 mg/kg, ip measured at 15 to 90 mins administered 30 mins prior to substance p-challenge by plethysmometric analysis. The class given is functional.
In data set [6] the test system is Mus musculus. Put plainly: Antiinflammatory activity in carrageenan-induced Swiss mouse peritonitis model assessed as decrease in total number of cells in pertonial cavity at 3 mg/kg, ip administered for 4 hrs prior to carrageenan challenge. The data set is classed as functional. Set-up: scale not given: the % may be the effect or the level left.
In data set [7] the test system is Mus musculus. Put plainly: In vivo inhibition of myeloperoxidase activity in carrageenan-induced Swiss mouse peritonitis model at 1 to 100 mg/kg, ip administered prior to carrageenan challenge for 4hrs. The class given is functional, organism-based.
For data set [8], the system named is Mus musculus. Put plainly: Antiinflammatory activity in substance p-induced Swiss mouse peritonitis model assessed as decrease in total number of cells in pertonial cavity at 3 mg/kg, ip administered for 30 mins prior to substance-P challenge. The data set is classed as functional.
Data set [9] has as its system RAW264.7. Put plainly: Inhibition of COX2 expression in LPS-stimulated mouse RAW264.7 cells at 12.5 to 50 ug/ml preincubated with the compound followed by LPS stimulation for 24 hrs by Real-Time PCR. The data set is classed as functional, cell-based. Background: In qPCR the cycle at which signal appears reflects the starting amount.
The test system of data set [10] is RAW264.7. Put plainly: Cytotoxicity against mouse RAW264.7 cells assessed as cell viability at 100 ug/ml after 24 hrs by MTT assay. Particulars: raw264.7, 24 h. The data set is classed as cell-based. (Tetrazolium assays rely on reduction of a dye to a coloured formazan, in cell work by metabolically active cells.)
Data set [11] relates to RAW264.7. Put plainly: Inhibition of iNOS expression in LPS-stimulated mouse RAW264.7 cells at 12.5 to 50 ug/ml preincubated with the compound followed by LPS stimulation for 24 hrs by Real-Time PCR. The data set is classed as functional, cell-based.
The test system of data set [12] is A-375. Put plainly: Induction of autophagy in human A375 cells assessed as increase in LC3-2 complex concentration at 65 uM after 1 hr by Western blot analysis. The data set is classed as functional, cell-based.
Data set [13] deals with A-375. Put plainly: Induction of autophagy in human A375 cells assessed as increase in LC3-2 complex concentration at 65 uM after 6 hrs by Western blot analysis. The class given is functional, cell-based.
The subject of data set [14] is Mus musculus. Put plainly: Antiinflammatory activity in carrageenan-induced Swiss mouse peritonitis model assessed as effect on total number of cells in peritonial cavity at 1 to 10 mg/kg, ip administered 30 mins prior to carrageenan challenge. The data set is classed as functional, organism-based.
For data set [15], the system named is Mus musculus. Put plainly: Antiinflammatory activity against carrageenan-induced paw edema in Swiss mouse at 10 mg/kg, ip measured at 15 to 90 mins administered 30 mins prior to carrageenan-challenge by plethysmometric analysis. The data set is classed as functional.
For data set [16], the system named is Mus musculus. Put plainly: Antiinflammatory activity against carrageenan-induced paw edema in Swiss mouse at 100 mg/kg, ip measured at 15 to 90 mins administered 30 mins prior to carrageenan-challenge by plethysmometric analysis. The data set is classed as functional.
In data set [17] the test system is Mus musculus. Put plainly: Antiinflammatory activity against bradykinin-induced paw edema in Swiss mouse at 10 mg/kg, ip measured at 15 to 90 mins administered 30 mins prior to bradikynin-challenge by plethysmometric analysis. The class given is functional.
The subject of data set [18] is Mus musculus. Put plainly: Antiinflammatory activity against bradykinin-induced paw edema in Swiss mouse at 3 mg/kg, ip measured at 15 to 90 mins administered 30 mins prior to bradikynin-challenge by plethysmometric analysis. The class given is functional.
For data set [19], the system named is Mus musculus. Put plainly: Antiinflammatory activity against substance-P-induced paw edema in Swiss mouse at 10 mg/kg, ip measured at 15 to 90 mins administered 30 mins prior to substance p-challenge by plethysmometric analysis. The class given is functional.
The subject of data set [20] is Mus musculus. Put plainly: Antiinflammatory activity against substance-P-induced paw edema in Swiss mouse at 100 mg/kg, ip measured at 15 to 90 mins administered 30 mins prior to substance p-challenge by plethysmometric analysis. The data set is classed as functional.
The test system of data set [21] is Mus musculus. Put plainly: Antiinflammatory activity in carrageenan-induced Swiss mouse peritonitis model assessed as decrease in total number of cells in pertonial cavity at 100 mg/kg, ip administered 30 mins prior to carrageenan challenge. The data set is classed as functional. The arrangement: scale not given: the % may be the effect or the level left.
Data set [22] deals with Mus musculus. Put plainly: Antiinflammatory activity in bradykinin-induced Swiss mouse peritonitis model assessed as decrease in total number of cells in pertonial cavity at 1 mg/kg, ip administered for 30 mins prior to bradykinin challenge. The class given is functional, organism-based.
Data set [23] concerns Mus musculus. Put plainly: Antiinflammatory activity in bradykinin-induced peritonitis Swiss mouse model assessed as decrease in total number of cells in pertonial cavity at 10 mg/kg, ip administered for 30 mins prior to bradykinin challenge. The data set is classed as functional.
Data set [24] deals with Mus musculus. Put plainly: Antiinflammatory activity in bradykinin-induced peritonitis Swiss mouse model assessed as decrease in total number of cells in pertonial cavity at 100 mg/kg, ip administered for 30 mins prior to bradykinin challenge. The data set is classed as functional.
The subject of data set [25] is Mus musculus. Put plainly: Antiinflammatory activity in bradykinin-induced peritonitis ip dosed Swiss mouse model assessed as decrease in total number of cells in pertonial cavity administered for 4 hrs prior to bradykinin challenge. The class given is functional.
Data set [26] concerns Mus musculus. Put plainly: Antiinflammatory activity in substance p-induced Swiss mouse peritonitis model assessed as decrease in total number of cells in pertonial cavity at 1 to 10 mg/kg, ip administered for 30 mins prior to substance-P challenge. The data set is classed as functional, organism-based.
Data set [27] has as its system Mus musculus. Put plainly: Antiinflammatory activity in substance p-induced Swiss mouse peritonitis model assessed as decrease in total number of cells in pertonial cavity at 100 mg/kg, ip administered for 30 mins prior to substance-P challenge. The class given is functional.
The subject of data set [28] is RAW264.7. Put plainly: Inhibition of LPS-induced nitric oxide production in mouse RAW264.7 cells preincubated for 1 hr followed by LPS stimulation by Greiss assay. The data set is classed as functional, cell-based.

Take `CC(=O)OCC(=O)[C@@]12N=C(C)O[C@@H]1C[C@H]1[C@@H]3CCC4=CC(=O)C=C[C@]4(C)[C@H]3[C@@H](O)C[C@@]12C` [DEFLAZACORT]: the inhibition result in the data set on Mus musculus [1] and in the data set on Mus musculus [7] was “Active” each time. Besides, the inhibition in vivo at 3 mg/kg in the data set with Mus musculus [2] was determined as 46.2%; with Mus musculus [3] it was 29.2%; in the data set with Mus musculus [5], 32.8%; in the data set with Mus musculus [8] it was 53.3%. The same compound yielded an inhibition in vivo at 100 mg/kg in the data set on Mus musculus [4] of 30.1%. In the data set on Mus musculus [6], the Activity stood at 57.1%.

As for `COc1cc(/C=C/C(=O)/C=C/c2ccc(O)c(OC)c2)ccc1[O-].[Na+]`, the inhibition entry in the data set on RAW264.7 [9], in the data set with RAW264.7 [11], in the data set with Mus musculus [1] and in the data set with Mus musculus [7] was “Active” throughout. The Activity entry is recorded as “Non-toxic” in the data set on RAW264.7 [10] and 38.4% with Mus musculus [21]. Besides, the result in the data set on A-375 [12] was Active. Further, the outcome in the data set on A-375 [13], in the data set with Mus musculus [14], in the data set on Mus musculus [22] and with Mus musculus [26] was inactive. Further, the inhibition in vivo at 10 mg/kg in the data set on Mus musculus [15] worked out at 17.2%; in the data set on Mus musculus [17] it was 30.8%; in the data set on Mus musculus [19], 15.4%; in the data set on Mus musculus [23], 65.4%. In addition, the inhibition in vivo at 100 mg/kg worked out at 18.9% in the data set with Mus musculus [16], 31.5% in the data set on Mus musculus [20], 78.8% in the data set on Mus musculus [24] and 40% with Mus musculus [27]. This compound had an inhibition in vivo at 3 mg/kg in the data set on Mus musculus [18] of 39.2%. Besides, the ED50 with Mus musculus [25] stood at 7.6 mg/kg. The compound also had an IC50 with RAW264.7 [28] of 7.7 µM.

What is called inhibition in vivo is the relative decrease from the control value, in per cent. The ED50 is the dose that gives a 50% effect, or the effect in half of the subjects. A word on the IC50: it is the midpoint of a concentration-inhibition curve.

The values are drawn from ChEMBL document CHEMBL3785061, “Evaluation of the anti-inflammatory action of curcumin analog (DM1): Effect on iNOS and COX-2 gene expression and autophagy pathways” (Bioorg Med Chem, 2016).
